± gives the standard deviation of the averaged measurements.
Tested on: HepaRG
Experiment: LDH release cytotoxicity, % of total lysis control; higher = more cytotoxic
Details: 48 h
Method in brief: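 Percent cytotoxicity was scaled between on-plate vehicle and total lysis controls, then averaged over duplicate wells. The cells were single-lot HepaRG on collagen I-coated 96-well plates, exposed for 48 h to eight-point half-log test chemical series topping at 100 µM in serum-free induction medium with 0.5% DMSO. Total lysis wells got 0.1% Triton X, and LDH in 50 µL spent medium was read as resorufin fluorescence (CytoTox-ONE, Tecan Safire).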

SMILES	LDH release cytotoxicity (0.03162 µM)	LDH release cytotoxicity (0.1 µM)	LDH release cytotoxicity (0.3162278 µM)	LDH release cytotoxicity (1 µM)	LDH release cytotoxicity (3.16228 µM)	LDH release cytotoxicity (10 µM)	LDH release cytotoxicity (31.6228 µM)	LDH release cytotoxicity (100 µM)	also measured
COc1cc(C(C)C)c2c(c1)S(=O)(=O)N(COc1cc(=O)n3cccc(OCCN4CCCCC4)c3n1)C2=O	–	–	–	–	–	–	–	–	LDH release cytotoxicity (0.0079057 µM): 0.0307 ± 1.5%; LDH release cytotoxicity (0.025 µM): 0.0794 ± 0.093%; LDH release cytotoxicity (0.0790569 µM): 0.357 ± 0.16%; LDH release cytotoxicity (0.25 µM): -0.592 ± 0.34%; LDH release cytotoxicity (0.790569 µM): -0.444 ± 0.69%; LDH release cytotoxicity (2.5 µM): -0.335 ± 0.28%; LDH release cytotoxicity (7.90569 µM): -0.231 ± 0.07%; LDH release cytotoxicity (25 µM): 14.2 ± 0.87%
COc1ccc(C(=O)Nc2nc3ccccc3c(NCc3ccccc3)c2C#N)cc1	-1.06 ± 0.44%	-0.452 ± 0.066%	-0.037 ± 0.4%	0.715 ± 0.075%	2.34 ± 0.3%	2.97 ± 0.97%	4.87 ± 0.81%	8.05 ± 0.67%	–
COc1cccc(-c2ccc(C=CCN3CCCCCC3)cc2Cl)c1	–	–	–	–	–	–	–	–	LDH release cytotoxicity (0.0286186 µM): -0.404 ± 1.3%; LDH release cytotoxicity (0.0905 µM): -2.18 ± 0.81%; LDH release cytotoxicity (0.2861861 µM): -2.02 ± 0.061%; LDH release cytotoxicity (0.905 µM): -1.85 ± 0.81%; LDH release cytotoxicity (2.86186 µM): -1.3 ± 0.38%; LDH release cytotoxicity (9.05 µM): -0.654 ± 1.5%; LDH release cytotoxicity (28.618613 µM): 0.285 ± 1.1%; LDH release cytotoxicity (90.5 µM): 71.6 ± 10%
COCc1nnc(-c2ccc[n+]([O-])c2)n1-c1c(Cl)c(Cl)cc2[nH]c(=O)c(=O)[nH]c12	-1.68 ± 0.083%	-1.55 ± 0.35%	-2.04 ± 0.24%	-2.82 ± 1.1%	-2.03 ± 0.3%	-1.6 ± 0.17%	-1.69 ± 0.83%	-0.641 ± 0.26%	–
COc1ccc2cc(S(=O)(=O)NC(CC(=O)NC(Cc3ccc(CN4C(C)CCCC4C)cc3)C(=O)N(C)C(C)C)c3ccc4c(c3)OCO4)ccc2c1 (stereo unspecified)	–	–	–	–	–	–	–	–	LDH release cytotoxicity (0.0301998 µM): -0.793 ± 0.59%; LDH release cytotoxicity (0.0955 µM): -1.98 ± 1.2%; LDH release cytotoxicity (0.301997 µM): -1.26 ± 0.36%; LDH release cytotoxicity (0.955 µM): -1.65 ± 0.66%; LDH release cytotoxicity (3.01998 µM): -1.13 ± 0.075%; LDH release cytotoxicity (9.55 µM): 1.45 ± 0.6%; LDH release cytotoxicity (30.199752 µM): 70.28 ± 0.7%; LDH release cytotoxicity (95.5 µM): 80.2 ± 1%
Cc1ncc(C(CCCCCCc2ccc3c(n2)NCCC3)CC(=O)O)cn1 (stereo unspecified)	-1.55 ± 0.6%	-1.82 ± 1.1%	-1.74 ± 0.75%	-2.04 ± 0.057%	-1.49 ± 1.3%	-1.25 ± 0.094%	-1.33 ± 0.38%	0.986 ± 0.45%	–
Clc1cc(Cl)c2c(c1)N=C1CCCCCN1C2	-2.23 ± 0.45%	-1.38 ± 0.19%	-0.748 ± 0.22%	-1.45 ± 0.52%	-1.34 ± 0.11%	1.41 ± 0.42%	1.58 ± 0.34%	3.36 ± 0.44%	–

— the supplement of paper PMC7840683
